From patent US20190085289A1, “COMPOSITIONS AND METHODS FOR PATHOGEN INACTIVATION OF PLATELETS” (Cerus Corporation, priority 2017, published 2019)

Assay: Stability and photoconversion of S-59 in PAS/plasma with platelets and bacteria (HPLC)
Format: physicochemical
Conditions: for % S-59 conversion: after UVA
Experimental: Another study evaluated 24 hour stability and photoconversion of amotosalen (S-59) in PAS with plasma and platelets, in the presence of bacteria. Two ABO matched platelet units in 100% plasma were pooled, split into two units and InterSol® PAS added (e.g., 65/35). S-59 was added to the test unit at a concentration of 150 but not initially to the control unit. A log culture of K. pneumoniae (˜8 log cfu/mL) was added to the units at a target of ˜60 CFU/unit and the units were incubated in a platelets shaker at 22° C. for approximately 24 hours. At the end of incubation, S-59 was also added to the control unit at the same concentration and both control and test units were subjected to UVA light. Samples were taken pre- and post-UVA illumination for both units bacterial titer assay and HPLC. Post-illumination both units were subjected to a CAD processing step to remove residual amotosalen and photoproducts and stored on a platelet shaker for 7 days to confirm no growth of bacteria.

For Cc1oc2c(C)c3oc(=O)cc(C)c3cc2c1COCCN [S-59, 3-(2-aminoethoxymethyl)-2,5,9-trimethylfuro[3,2-g]chromen-7-one], the S-59 concentration stability (24 hour incubation period, control and test units, with K. pneumoniae) was “stable”, the S-59 concentration (Control unit (S-59 added at end of ~24 h incubation), platelets + K. pneumoniae, T_24h, Avg.) was 149 µM and the S-59 concentration (Control unit (S-59 added at end of ~24 h incubation), T_24h, Replicate 1) was 144 µM. It also gave a S-59 concentration (Control unit (S-59 added at end of ~24 h incubation), T_24h, Replicate 2) of 153 µM, a S-59 concentration (Control unit (S-59 added at end of ~24 h incubation), T_Post-UVA, Avg.) of 40 µM and a S-59 concentration (Control unit (S-59 added at end of ~24 h incubation), T_Post-UVA, Replicate 1) of 43 µM. The S-59 concentration (Control unit (S-59 added at end of ~24 h incubation), T_Post-UVA, Replicate 2) was 37 µM, the “% S-59 conversion” value (Control unit (S-59 added at end of ~24 h incubation), Avg.) was 27% and the “% S-59 conversion” value (Control unit (S-59 added at end of ~24 h incubation), Replicate 1) was 30%. For the same compound, the “% S-59 conversion” value (Control unit (S-59 added at end of ~24 h incubation), Replicate 2) was 24%, the S-59 concentration (Test unit (S-59 150 added before incubation), PAS/plasma platelets + K. pneumoniae, 22° C., T_0, Avg.) was 152 µM and the S-59 concentration (Test unit (S-59 added before incubation), platelets + K. pneumoniae, T_0, Replicate 1) was 149 µM. The S-59 concentration (Test unit (S-59 added before incubation), platelets + K. pneumoniae, T_0, Replicate 2) was 155 µM, the S-59 concentration (Test unit (S-59 added before incubation), platelets + K. pneumoniae, T_24h, Avg.) was 153 µM and the S-59 concentration (Test unit (S-59 added before incubation), T_24h, Replicate 1) was 149 µM. For the same compound, the S-59 concentration (Test unit (S-59 added before incubation), T_24h, Replicate 2) was 157 µM, the S-59 concentration (Test unit (S-59 added before incubation), T_Post-UVA, Avg.) was 26 µM and the S-59 concentration (Test unit (S-59 added before incubation), T_Post-UVA, Replicate 1) was 27 µM. For the same compound, the S-59 concentration (Test unit (S-59 added before incubation), T_Post-UVA, Replicate 2) was 24 µM, the “% S-59 conversion” value (Test unit (S-59 added before incubation), Avg.) was 17% and the “% S-59 conversion” value (Test unit (S-59 added before incubation), Replicate 1) was 18%. For the same compound, the “% S-59 conversion” value (Test unit (S-59 added before incubation), Replicate 2) was 15%.
